Measured values: PubChem BioAssay AID256 (DTP/NCI, 2004)
Several values for one entry are separate records, joined by “and”; a condition that tells them apart may be missing. Equal values may be shown once. Inconclusive results and toxic doses are left out. The calls were made as follows: active = survival T/C of 150% or more; inactive = T/C below 125% in these data.

Test system: CD2F1 mice, L1210 leukemia ip, survival T/C
Assay: NCI In Vivo Anticancer Drug Screen. Data for tumor model L1210 Leukemia (intraperitoneal) in CD2F1 (CDF1) mice
Details: higher = longer survival
Method in brief: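 Ratio T/C, where T is the treated-group value and C the vehicle-dosed control value, from mice implanted with a transplantable tumor.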

[1] = endpoint: mean survival time, dose: 100.0 mg/kg/injection, schedule: Q01DX009 (ip), vehicle: saline with Tween-80
[2] = endpoint: mean survival time, dose: 100.0 mg/kg/injection, schedule: Q04DX003 (ip), vehicle: saline with Tween-80
[3] = endpoint: mean survival time, dose: 200.0 mg/kg/injection, schedule: Q01DX009 (ip), vehicle: saline with Tween-80
[4] = endpoint: mean survival time, dose: 200.0 mg/kg/injection, schedule: Q04DX003 (ip), vehicle: saline with Tween-80
[5] = endpoint: mean survival time, dose: 400.0 mg/kg/injection, schedule: Q01DX009 (ip), vehicle: saline with Tween-80
[6] = endpoint: mean survival time, dose: 400.0 mg/kg/injection, schedule: Q04DX003 (ip), vehicle: saline with Tween-80
[7] = endpoint: mean survival time, dose: 50.0 mg/kg/injection, schedule: Q01DX009 (ip), vehicle: Klucel (hydroxypropylcellulose) (HPC)
[8] = endpoint: mean survival time, dose: 100.0 mg/kg/injection, schedule: Q01DX009 (ip), vehicle: Klucel (hydroxypropylcellulose) (HPC)
[9] = endpoint: mean survival time, dose: 100.0 mg/kg/injection, schedule: Q01DX001 (ip), vehicle: Klucel (hydroxypropylcellulose) (HPC)
[10] = endpoint: mean survival time, dose: 200.0 mg/kg/injection, schedule: Q01DX001 (ip), vehicle: Klucel (hydroxypropylcellulose) (HPC)
[11] = endpoint: mean survival time, dose: 400.0 mg/kg/injection, schedule: Q01DX001 (ip), vehicle: Klucel (hydroxypropylcellulose) (HPC)
[12] = endpoint: mean survival time, dose: 100.0 mg/kg/injection, schedule: Q01DX009 (ip), vehicle: saline
[13] = endpoint: mean survival time, dose: 200.0 mg/kg/injection, schedule: Q01DX009 (ip), vehicle: saline
[14] = endpoint: mean survival time, dose: 400.0 mg/kg/injection, schedule: Q01DX009 (ip), vehicle: saline

Measured: T/C

CC(=O)Nc1ncc2ccccc2c1-c1ccc(N(CCOS(=O)(=O)c2ccc(C)cc2)CCOS(=O)(=O)c2ccc(C)cc2)cc1
inactive: endpoint: mean survival time, dose: 25.0 mg/kg/injection, schedule: Q04DX003 (ip), vehicle: DMSO 108 % of control | endpoint: mean survival time, dose: 50.0 mg/kg/injection, schedule: Q04DX003 (ip), vehicle: DMSO 104 % of control | endpoint: mean survival time, dose: 100.0 mg/kg/injection, schedule: Q04DX003 (ip), vehicle: DMSO 110 % of control | endpoint: mean survival time, dose: 200.0 mg/kg/injection, schedule: Q04DX003 (ip), vehicle: DMSO 116 % of control | endpoint: mean survival time, dose: 400.0 mg/kg/injection, schedule: Q04DX003 (ip), vehicle: DMSO 108 % of control

S=C1NCCS1
inactive: endpoint: mean survival time, dose: 75.0 mg/kg/injection, schedule: Q01DX009 (ip), vehicle: Klucel (hydroxypropylcellulose) (HPC) 95 % of control | endpoint: mean survival time, dose: 150.0 mg/kg/injection, schedule: Q01DX009 (ip), vehicle: Klucel (hydroxypropylcellulose) (HPC) 96 % of control | endpoint: mean survival time, dose: 300.0 mg/kg/injection, schedule: Q01DX009 (ip), vehicle: Klucel (hydroxypropylcellulose) (HPC) 101 % of control

O=CNc1cccc(Cl)c1
inactive: [1] 96 % of control | [2] 100 % of control | [3] 95 % of control | [4] 90 % of control | [5] 96 % of control | [6] 90 % of control

COc1cc2c3c(c1)-c1c(ccc(OC)c1OC)CC3N(CCCl)CC2 (stereo not drawn)
inactive: endpoint: mean survival time, dose: 25.0 mg/kg/injection, schedule: Q04DX003 (ip), vehicle: water 98 % of control | endpoint: mean survival time, dose: 50.0 mg/kg/injection, schedule: Q04DX003 (ip), vehicle: water 105 % of control

COC(=O)C(C(=O)OC)c1ccc(C)c(OC)c1
inactive: [1] 97 % of control | [2] 104 % of control | [3] 98 % of control | [4] 104 % of control | [5] 97 % of control | [6] 102 % of control

CC(=O)OCc1cc(=O)n(C)c2c3c4c(cc12)c(C)cc(=O)n4CO3
inactive: endpoint: mean survival time, dose: 6.25 mg/kg/injection, schedule: Q01DX009 (ip), vehicle: Klucel (hydroxypropylcellulose) (HPC) 100 % of control | endpoint: mean survival time, dose: 12.5 mg/kg/injection, schedule: Q01DX009 (ip), vehicle: Klucel (hydroxypropylcellulose) (HPC) 104 % of control and 112 % of control | endpoint: mean survival time, dose: 25.0 mg/kg/injection, schedule: Q01DX009 (ip), vehicle: Klucel (hydroxypropylcellulose) (HPC) 112 % of control and 114 % of control and 109 % of control | [7] 119 % of control | [8] 90 % of control

CC(C)(C)COC(=O)Nc1cccc(O)c1
inactive: [2] 96 % of control | [4] 95 % of control | [6] 102 % of control

O=S1(=O)C=CCCC=C1
inactive: [7] 93 % of control | [8] 93 % of control

CN(C)Cc1cc(C(C)(C)C)cc(CN(C)C)c1O
inactive: endpoint: mean survival time, dose: 2.5 mg/kg/injection, schedule: Q01DX009 (ip), vehicle: saline with Tween-80 98 % of control | endpoint: mean survival time, dose: 5.0 mg/kg/injection, schedule: Q01DX009 (ip), vehicle: saline with Tween-80 96 % of control | endpoint: mean survival time, dose: 10.0 mg/kg/injection, schedule: Q01DX009 (ip), vehicle: saline with Tween-80 95 % of control and 100 % of control

CCOC(=O)C1(C(=O)OCC)C(C)CC(O)N1C(=O)c1cc2c(cc1[N+](=O)[O-])OCO2 (stereo not drawn)
inactive: [9] 100 % of control | [10] 100 % of control | [11] 104 % of control

CCCCCC1SC1CC1SC1CCCCCCCC(=O)N(CCCC)CCCC (stereo not drawn)
inactive: endpoint: mean survival time, dose: 75.0 mg/kg/injection, schedule: Q04DX003 (ip), vehicle: saline 98 % of control | endpoint: mean survival time, dose: 150.0 mg/kg/injection, schedule: Q04DX003 (ip), vehicle: saline 107 % of control | endpoint: mean survival time, dose: 300.0 mg/kg/injection, schedule: Q04DX003 (ip), vehicle: saline 97 % of control

Cc1ccc(S(=O)(=O)Nc2ccccc2-c2nc3ccc(C)cc3c(=O)o2)cc1
inactive: [1] 100 % of control | [3] 91 % of control | [5] 96 % of control

CCCCC(CC)C(=O)[O][Sn]([CH2]CCC)([CH2]CCC)[O]C(=O)C(CC)CCCC (stereo not drawn)
inactive: endpoint: mean survival time, dose: 1.5 mg/kg/injection, schedule: Q01DX009 (ip), vehicle: saline with Tween-80 100 % of control | endpoint: mean survival time, dose: 3.0 mg/kg/injection, schedule: Q01DX009 (ip), vehicle: saline with Tween-80 100 % of control | endpoint: mean survival time, dose: 6.0 mg/kg/injection, schedule: Q01DX009 (ip), vehicle: saline with Tween-80 104 % of control | endpoint: mean survival time, dose: 6.25 mg/kg/injection, schedule: Q04DX003 (ip), vehicle: saline with Tween-80 105 % of control

C[C@]12CC[C@@H]3c4ccc(OC(=O)Cc5ccc(N(CCCl)CCCl)cc5)cc4CC[C@H]3[C@@H]1CC[C@@H]2OC(=O)Cc1ccc(N(CCCl)CCCl)cc1
inactive: endpoint: median survival time, dose: 25.0 mg/kg/injection, schedule: Q01DX009 (ip), vehicle: Klucel (hydroxypropylcellulose) (HPC) 89 % of control | endpoint: median survival time, dose: 50.0 mg/kg/injection, schedule: Q01DX009 (ip), vehicle: Klucel (hydroxypropylcellulose) (HPC) 92 % of control | endpoint: median survival time, dose: 100.0 mg/kg/injection, schedule: Q01DX009 (ip), vehicle: Klucel (hydroxypropylcellulose) (HPC) 94 % of control | endpoint: median survival time, dose: 200.0 mg/kg/injection, schedule: Q01DX009 (ip), vehicle: Klucel (hydroxypropylcellulose) (HPC) 92 % of control | endpoint: median survival time, dose: 400.0 mg/kg/injection, schedule: Q01DX009 (ip), vehicle: Klucel (hydroxypropylcellulose) (HPC) 101 % of control

COC1OCC(C(C)=O)C(O)C1O (stereo not drawn)
inactive: endpoint: mean survival time, dose: 100.0 mg/kg/injection, schedule: Q01DX001 (ip), vehicle: saline 101 % of control | endpoint: mean survival time, dose: 200.0 mg/kg/injection, schedule: Q01DX001 (ip), vehicle: saline 96 % of control | endpoint: mean survival time, dose: 400.0 mg/kg/injection, schedule: Q01DX001 (ip), vehicle: saline 95 % of control

O=C(/C(=C\c1ccccc1)N1CCOCC1)c1ccc(Cl)cc1
inactive: endpoint: mean survival time, dose: 25.0 mg/kg/injection, schedule: Q01DX009 (ip), vehicle: saline with Tween-80 95 % of control | endpoint: mean survival time, dose: 50.0 mg/kg/injection, schedule: Q01DX009 (ip), vehicle: saline with Tween-80 97 % of control | [1] 86 % of control

COc1ccc(NC(=O)c2ccc(C(=O)Nc3ccc(OC)cc3)cc2)cc1
inactive: [12] 96 % of control | [13] 90 % of control | [14] 98 % of control

Cc1ccc(C#N)c2c1CCC2
inactive: [9] 103 % of control | [10] 95 % of control | [11] 103 % of control

O=c1c2ncn(C3CC(O)C(O)C(CO)O3)c2ncn1C1CC(O)C(O)C(CO)O1 (stereo not drawn)
inactive: endpoint: mean survival time, dose: 12.5 mg/kg/injection, schedule: Q01DX005 (ip), vehicle: water 108 % of control | endpoint: mean survival time, dose: 25.0 mg/kg/injection, schedule: Q01DX005 (ip), vehicle: water 97 % of control | endpoint: mean survival time, dose: 50.0 mg/kg/injection, schedule: Q01DX005 (ip), vehicle: water 100 % of control | endpoint: mean survival time, dose: 100.0 mg/kg/injection, schedule: Q01DX005 (ip), vehicle: water 97 % of control | endpoint: mean survival time, dose: 200.0 mg/kg/injection, schedule: Q01DX005 (ip), vehicle: water 97 % of control

CCC[CH2][Sn-]([CH2]CCC)([CH2]CCC)[O]C(=O)C(C)C
inactive: endpoint: mean survival time, dose: 375.0 micrograms/kg/injection, schedule: Q01DX009 (ip), vehicle: saline 93 % of control | endpoint: mean survival time, dose: 750.0 micrograms/kg/injection, schedule: Q01DX009 (ip), vehicle: saline 100 % of control | endpoint: mean survival time, dose: 1500.0 micrograms/kg/injection, schedule: Q01DX009 (ip), vehicle: saline 96 % of control

Cc1c(O)c2c(c(O)c1Cc1ccc(CN)cc1)C(=O)c1ccccc1C2=O
inactive: endpoint: mean survival time, dose: 1.56 mg/kg/injection, schedule: Q01DX009 (ip), vehicle: water 103 % of control | endpoint: mean survival time, dose: 3.13 mg/kg/injection, schedule: Q01DX009 (ip), vehicle: water 101 % of control | endpoint: mean survival time, dose: 6.25 mg/kg/injection, schedule: Q01DX009 (ip), vehicle: water 95 % of control | endpoint: mean survival time, dose: 12.5 mg/kg/injection, schedule: Q01DX009 (ip), vehicle: water 103 % of control | endpoint: mean survival time, dose: 25.0 mg/kg/injection, schedule: Q01DX009 (ip), vehicle: water 87 % of control

CCn1c(N)c(N)c(=O)[nH]c1=S
inactive: [1] 94 % of control | [3] 98 % of control | [5] 88 % of control

CCCCCCCCCCCCCCCCCCCOc1ccc(OCCCCCCCCCCCCCC)cc1
inactive: endpoint: mean survival time, dose: 100.0 mg/kg/injection, schedule: Q01DX001 (ip), vehicle: saline with Tween-80 86 % of control | endpoint: mean survival time, dose: 200.0 mg/kg/injection, schedule: Q01DX001 (ip), vehicle: saline with Tween-80 88 % of control | endpoint: mean survival time, dose: 400.0 mg/kg/injection, schedule: Q01DX001 (ip), vehicle: saline with Tween-80 88 % of control

Nc1ccc(S(=O)(=O)N(CCO)CCO)cc1[N+](=O)[O-]
inactive: [2] 96 % of control | [4] 98 % of control | [6] 95 % of control

Cc1ccc(C)c(C(O)C2CC2)c1 (stereo not drawn)
inactive: [12] 96 % of control | [13] 100 % of control | [14] 102 % of control

COC(=O)c1csc(CCN)n1
inactive: [12] 102 % of control | [13] 95 % of control | [14] 92 % of control
